Laboratory results: PMC8233204, “Cardiac myosin-binding protein C interaction with actin is inhibited by compounds identified in a high-throughput fluorescence lifetime screen” (The Journal of Biological Chemistry, 2021)
Entries after “also recorded” stand apart in the source; their conditions may differ. Where two headings read alike, the source gives them in different places.

How the values were obtained:
[1] = target: T1, FMAL-actin:TMR-C0-C2^Cys225 (Homo sapiens, UniProt Q14896, C239L/C249S/C426T/C436V/C443S/H225C); assay: FMAL-actin-TMR-C0-C2 TR-FRET binding assay; settings: 1 μM FMAL-actin, 2 μM TMR-C0-C2, both nonphosphorylated and phosphorylated C0-C2
T1 construct: N-terminal domains C0 through C2 (C0-C2), containing the proline/alanine-rich linker (P/A) and the M-domain (M); 6x His (N, cleaved yes); TEV protease cleavage site (N, cleaved yes); made in house; host or cells: E. coli BL21DE3 (C0-C2^Cys225); actin purified from rabbit skeletal muscle
T1 sequence (Q14896 1-451 H225C/C239L/C249S/C426T/C436V/C443S limits assumed): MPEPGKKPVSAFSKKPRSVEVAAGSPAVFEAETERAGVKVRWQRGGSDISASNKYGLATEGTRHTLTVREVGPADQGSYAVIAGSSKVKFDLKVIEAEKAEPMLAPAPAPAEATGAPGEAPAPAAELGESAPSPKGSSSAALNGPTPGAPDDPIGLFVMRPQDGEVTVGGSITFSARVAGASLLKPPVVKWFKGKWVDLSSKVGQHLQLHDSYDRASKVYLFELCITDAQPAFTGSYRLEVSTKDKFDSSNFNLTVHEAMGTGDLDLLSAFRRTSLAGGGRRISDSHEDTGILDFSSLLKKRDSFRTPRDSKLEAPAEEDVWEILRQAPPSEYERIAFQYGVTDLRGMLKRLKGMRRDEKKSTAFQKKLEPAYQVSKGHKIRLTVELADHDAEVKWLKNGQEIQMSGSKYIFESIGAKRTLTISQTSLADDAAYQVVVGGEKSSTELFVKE
Procedure: In total, 1 μM F-Actin labeled (to 10%) on Cys-374 with FMAL (donor fluor) was incubated with increasing concentrations (0–20 μM) of C0-C2^Cys225 unlabeled (for donor only (D) data acquisition) or labeled to 95% with TMR (acceptor fluor) (for donor–acceptor (DA) data). Lifetimes of FMAL-actin were determined for D and DA at each concentration of C0-C2^Cys225. TR-FRET efficiency (1 – (τDA/τD)) was determined for each C0-C2^Cys225 concentration. The binding curve was generated from data from two separate preparations of actin and C0-C2^Cys225. Testing of compound effects by TR-FRET was similarly done at 1 μM FMAL-actin with unlabeled C0-C2^Cys225 (D) and TMR-C0-C2^Cys225 (DA), both at 2 μM.

[2] = target: T2, AF568-actin:C0-C2 (actin-cMyBP-C binding) (Homo sapiens, UniProt Q14896); assay: TR-F concentration-response assay, AF568-actin with C0-C2; settings: 2 μM C0-C2; for EC50: 1 μM AF568-actin, mean ± SE; for TR-F n: n not defined in table
T2 sequence (Q14896 1-451 limits assumed): as the sequence (Q14896 1-451 H225C/C239L/C249S/C426T/C436V/C443S limits assumed) above, with C225H, L239C, S249C, T426C, V436C, S443C counted along it
Procedure: (§5) Using the same conditions as in the primary screen, we determined the concentration dependence of each of the three Hit compounds on the AF568-actin lifetime effects. […] In a separate dose–response assay utilizing 3 μM C0-C2, we compared the effects of the compounds on nonphosphorylated and phosphorylated C0-C2. […] In the second dose-response assay, 3 μM instead of 2 μM C0-C2 was used in the second dose–response assay so that effects of compounds on phosphorylated C0-C2 could be readily detected, as phosphorylation of C0-C2 itself (in the absence of compounds) reduces binding to actin.
The Hit compounds were dissolved in DMSO to make a 10 mM stock solution, which was serially diluted in 96-well mother plates. Hits were screened at eight concentrations (0.5–100 μM). Compounds (1 μl) were transferred from the mother plates into 384-well plates using a Mosquito HV liquid handler (TTP Labtech Ltd). The same procedure of dispensing as for the pilot screening was applied in the TR-F concentration–response assays. Concentration dependence of the TR-F change was fitted using the Hill equation ([38]):(3) τ=τo+τmaxC^α/EC50α+C^α where τ and τ0 are TR-F in the presence and in the absence of the compound, τmax is the maximum effect, C is the compound concentration, EC50 is the compound concentration for which 50% of maximum effect is obtained, and α is the Hill coefficient of sigmoidicity.

F-actin = target: T3, F-actin (Oryctolagus cuniculus, UniProt P68135); assay: ITC of compounds with actin alone; format: binding, rabbit; settings: for ITC interaction with F-actin (in words): actin alone
T3 construct: Actin was prepared from rabbit skeletal muscle by extracting acetone powder; from tissue; host or cells: rabbit skeletal muscle (acetone powder)
Procedure: The titration of compounds binding to cMyBP-C was performed on an Affinity ITC (TA Instruments). Each compound in M-ABB buffer (2000–3000 μM) was titrated into C0-C2 in M-ABB buffer (100 μM, 350 μl). For the titration, a preliminary 2.5-μl injection (ignored in data analysis) was followed by 19–39 subsequent 2.5-μl injections with 4 min waits between each injection. The reference cell was filled with distilled water. To account for heat changes of dilution and mechanical mixing, binding data were corrected by subtraction of the final plateau injection values (when binding is complete) prior to curve fitting. Corrected binding data was processed using the NanoAnalyze analysis software (TA Instruments).
Figure S2. ITC of Suramin binding to actin alone. (A) Titration of 100 µM F-actin (in 350 µl) with 40 2.5
µl injections of 3,000 µM Suramin. (B) Fitted ITC binding curve for Suramin binding. Binding to actin was
for Suramin with actin alone (Kd ~200 µM).
(1 picture or pasted object on this page, not shown here)

[3] = target: T2, AF568-actin:C0-C2 (actin-cMyBP-C binding); assay: TR-F high-throughput screen of LOPAC library, AF568-actin with C0-C2; settings: for Actin-MyBP-C Drug Δτ, Screen 1 / Actin-MyBP-C Drug Δτ, Screen 2 / Actin-MyBP-C Drug Δτ, Sub-optimal Screen 3 / Actin-MyBP-C Drug Δτ, Sub-optimal Screen 4 / average change in lifetime, SD above the median of all compounds not excluded: 10 μM compound, 1 μM AF568-actin, 2 μM C0-C2; for average change in lifetime, SD above the median of all compounds not excluded: average of screens; for Difference, Screen 1 / Difference, Screen 2 / Difference, Sub-optimal Screen 3 / Difference, Sub-optimal Screen 4: Δτ actin+C0-C2 after subtracting effect on actin alone
Procedure: (§1) The 1280 LOPAC compounds were received in 96-well plates (LOPAC^1280, Sigma-Aldrich) and were reformatted into 1536-well flat, black-bottom polypropylene plates (Greiner Bio-One). In total, 50 nl of compounds was dispensed using an automated Echo 550 acoustic liquid dispenser (Labcyte). LOPAC compounds were formatted into plates, with the first two and last two columns loaded with 50 nl of DMSO and used for compound-free controls. The final concentration of the compounds was 10 μM. These assay plates were then heat-sealed using a PlateLoc Thermal Microplate Sealer (Agilent Technologies) and stored at –20 °C. Before screening, compound plates were equilibrated to room temperature (25 °C). In total, 1 μM AF568-labeled actin without or with 2 μM C0-C2 in M-ABB was dispensed by a Multidrop Combi Reagent Dispenser (Thermo Fisher Scientific) into the 1536-well assay plates containing the compounds. Plates were incubated at room temperature for 20 min before recording the data with the FLTPR. Plates were rescanned after 120 min incubation.
(§2) Two full screens were done using different batches of AF568-labeled actin, C0-C2, and test compounds.
(§3) Following data acquisition, TR-F waveforms observed for each well were convolved with the IRF to determine the lifetime (τ) (Equation 1) by fitting to a single-exponential decay ([15], [35]).
(§4) A compound was considered a Hit if it was in the top 25 compounds in each of two independent screenings of the LOPAC. Top compounds were those that increased the lifetime of AF568-actin when C0-C2 was present (indicating inhibition of C0-C2 binding). Compounds that altered AF568-actin lifetime when C0-C2 was not present by >4 SD relative to that of the control samples (those exposed to 0.1% DMSO) were first removed from the analysis. […] Any change in lifetime induced by a compound on AF568-actin alone was then subtracted from the effect of the compound on AF568-actin when C0-C2 was present. The resulting C0-C2-dependent change for all compounds was ranked.

[4] = target: AF568-actin:phosphorylated (by PKA) C0-C2 (Homo sapiens, UniProt Q14896); assay: TR-F concentration-response assay, AF568-actin with PKA-phosphorylated C0-C2; settings: for TR-F+PKA n: 3 μM phosphorylated C0-C2, n not defined in table
Sequence of AF568-actin:phosphorylated (by PKA) C0-C2 (Q14896 1-451 limits assumed): as the sequence (Q14896 1-451 H225C/C239L/C249S/C426T/C436V/C443S limits assumed) above, with C225H, L239C, S249C, T426C, V436C, S443C counted along it
Procedure: as §5
C0-C2 was treated with 7.5 ng PKA/μg C0-C2 at 30 °C for 30 min.
The Hit compounds were dissolved in DMSO to make a 10 mM stock solution, which was serially diluted in 96-well mother plates. Hits were screened at eight concentrations (0.5–100 μM). Compounds (1 μl) were transferred from the mother plates into 384-well plates using a Mosquito HV liquid handler (TTP Labtech Ltd). The same procedure of dispensing as for the pilot screening was applied in the TR-F concentration–response assays.

AF568-actin = target: T4, AF568-actin (Oryctolagus cuniculus, UniProt P68135); assay: TR-F high-throughput screen, AF568-actin alone (no C0-C2); format: binding, rabbit; settings: 10 μM compound; 1 μM AF568-actin alone
T4 construct: Actin was prepared from rabbit skeletal muscle by extracting acetone powder; from tissue; host or cells: rabbit skeletal muscle (acetone powder)
Procedure: as §1, §2, §3, §4

[5] = target: C0-C2 portion of human cMyBP-C (Homo sapiens, UniProt Q14896); assay: Isothermal titration calorimetry (ITC) of compounds binding to C0-C2; settings: for ITC ΔS / ITC ΔH / ITC ΔG: Table 1 average; for ITC ΔS: no unit in table (Fig. 4: J/mol•K); for ITC ΔH: no unit in table (Fig. 4: kJ/mol); for ITC ΔG: unit not given; for ITC n (stoichiometry, compound per C0-C2): average of two preparations
Sequence of C0-C2 portion of human cMyBP-C (Q14896 1-451 limits assumed): as the sequence (Q14896 1-451 H225C/C239L/C249S/C426T/C436V/C443S limits assumed) above, with C225H, L239C, S249C, T426C, V436C, S443C counted along it

C0-C2 = target: T5, C0-C2 (Homo sapiens, UniProt Q14896); assay: Visible light scattering (C0-C2 aggregation); settings: 2 or 10 μM C0-C2 mixed with compound for 20 min
T5 construct: N-terminal domains C0 through C2 (C0-C2), containing the proline/alanine-rich linker (P/A) and the M-domain (M); 6x His (N, cleaved yes); TEV protease cleavage site (N, cleaved yes); made in house; host or cells: E. coli BL21DE3
T5 sequence (Q14896 1-451 limits assumed): as the sequence (Q14896 1-451 H225C/C239L/C249S/C426T/C436V/C443S limits assumed) above, with C225H, L239C, S249C, T426C, V436C, S443C counted along it
Procedure: All three drugs were tested for causing C0-C2 to aggregate by measuring absorbance in the visible range beyond the absorption of protein or the drugs themselves. Observed absorbance in these wavelengths is actually loss of transmitted light due to light scattering from aggregated C0-C2. 2 or 10 μM of C0-C2 was mixed with 20 μM of suramin, NF023, or ATA for 20 min and wavelengths 250–600 nm were scanned using a Beckman Coulter DU730 UV/Vis Spectrophotometer to determine optical density. The same was done with 2 or 10 μM of C0-C2 and 20 μM of suramin, NF023, or ATA alone.

[6] = target: FMAL-actin (F-actin from rabbit skeletal muscle labeled at Cys-374 with fluorescein-5-maleimide) (rabbit) (UniProt P68135); assay: FRET or BRET; TR-FRET; 1 μM F-actin labeled (to 10%) with FMAL (donor) with 0-20 μM TMR-C0-C2^Cys225 (acceptor) ±PKA; M-ABB
[7] = target: FMAL-actin (F-actin from rabbit skeletal muscle labeled at Cys-374 with fluorescein-5-maleimide) (rabbit) (UniProt P68135); assay: as above; remark: listed apart in the source
[8] = compound binding to C0-C2, mean ± SE, two protein preparations, read-out: ITC Kd
[9] = single titration shown in Fig. 4
[10] = single titration shown in Fig. 4, 100 μM C0-C2, read-out: ITC Kd (fitted curve of Figure 4)

| Compound | EC50 [2] [µM] | TR-F n [2] | ITC interaction with F-actin (in words) (F-actin) | Actin-MyBP-C Drug Δτ, Screen 1 [3] [ns] | Actin-MyBP-C Drug Δτ, Screen 2 [3] [ns] | Actin-MyBP-C Drug Δτ, Sub-optimal Screen 3 [3] [ns] | Actin-MyBP-C Drug Δτ, Sub-optimal Screen 4 [3] [ns] | average change in lifetime, SD above the median of all compounds not excluded [3] [SD] | Difference, Screen 1 [3] [ns] | Difference, Screen 2 [3] [ns] | Difference, Sub-optimal Screen 3 [3] [ns] | Difference, Sub-optimal Screen 4 [3] [ns] | TR-F+PKA n [4] | Actin Drug Δτ, Screen 1 (AF568-actin) [ns] | Actin Drug Δτ, Screen 2 (AF568-actin) [ns] | Actin Drug Δτ, Sub-optimal Screen 3 (AF568-actin) [ns] | Actin Drug Δτ, Sub-optimal Screen 4 (AF568-actin) [ns] | ITC ΔS [5] | ITC ΔH [5] | ITC ΔG [5] | further results |
| --- | --- | --- | --- | --- | --- | --- | --- | --- | --- | --- | --- | --- | --- | --- | --- | --- | --- | --- | --- | --- | --- |
| O=C(O)C1=CC(=C(c2ccc(O)c(C(=O)O)c2)c2ccc(O)c(C(=O)O)c2)C=CC1=O [ATA, aurintricarboxylic acid] | 7.9 ± 1.9 | 3.4 | not apparent; also recorded: no interaction | 0.008 | 0.06 | 0.07 | 0.07 | 3.0 | 0.04 | 0.06 | 0.10 | 0.07 | 1.4 | -0.04 | 0.00 | -0.03 | 0.00 | 52.9 | −10.2 | −25.8 | TR-FRET measured binding of C0-C2 to actin, effect of compound ([1]; 20 μM compound): almost completely eliminated; also recorded: near zero; EC50 [4]: 4.3 ± 0.9 µM; ITC n (stoichiometry, compound per C0-C2) [5]: 3.1; Kd [5, 8]: 25.9 ± 2.2 µM; ITC n (fitted curve of Figure 4) [5, 9]: 2.1; ITC ΔH (fitted curve of Figure 4) [5, 9]: -2.49 kcal/mol; ITC ΔS (fitted curve of Figure 4) [5, 9]: 51.5 J/mol•K; Kd [5, 10]: 28.1 µM; absorbance in the visible range (light scatter, C0-C2 aggregation) (C0-C2): detected absorption |
| TMR-C0-C2^Cys225 phosphorylated by PKA (from UniProt Q14896 1-1274) (domain or fragment) |  |  |  |  |  |  |  |  |  |  |  |  |  |  |  |  |  |  |  |  | Kd [6]: 8 µM; Kd [7]: 3 µM |
| O=C(Nc1cccc(C(=O)Nc2ccc(S(=O)(=O)O)c3cc(S(=O)(=O)O)cc(S(=O)(=O)O)c23)c1)Nc1cccc(C(=O)Nc2ccc(S(=O)(=O)O)c3cc(S(=O)(=O)O)cc(S(=O)(=O)O)c23)c1 [NF023] | 16.3 ± 1.2 | 3.2 | not apparent; also recorded: no interaction | 0.058 | 0.07 | 0.06 | 0.04 | 3.8 | 0.09 | 0.06 | 0.08 | 0.03 | 1.8 | -0.03 | 0.01 | -0.02 | 0.01 | −19.2 | −30.2 | −24.6 | TR-FRET measured binding of C0-C2 to actin, effect of compound ([1]; 50 μM compound): almost completely eliminated; EC50 ([4]; read-out: TR-F+PKA EC50, 1 μM AF568-actin, 3 μM PKA-phosphorylated C0-C2, mean ± SE): 17.5 ± 11.8 µM; ITC n (stoichiometry, compound per C0-C2) [5]: 2.1; Kd [5, 8]: 42 ± 3.4 µM; ITC n (fitted curve of Figure 4) [5, 9]: 2.6; ITC ΔH (fitted curve of Figure 4) [5, 9]: -7.43 kcal/mol; ITC ΔS (fitted curve of Figure 4) [5, 9]: 20.9 J/mol•K; Kd [5, 10]: 35.1 µM; absorbance in the visible range (light scatter, C0-C2 aggregation) (C0-C2): did not detect absorption |
| Cc1ccc(C(=O)Nc2ccc(S(=O)(=O)O)c3cc(S(=O)(=O)O)cc(S(=O)(=O)O)c23)cc1NC(=O)c1cccc(NC(=O)Nc2cccc(C(=O)Nc3cc(C(=O)Nc4ccc(S(=O)(=O)O)c5cc(S(=O)(=O)O)cc(S(=O)(=O)O)c45)ccc3C)c2)c1 [Suramin, suramin] | 5.9 ± 1.2 | 3.6 | weak interaction | 0.088 | 0.15 | 0.18 | 0.13 | 6.5 | 0.12 | 0.16 | 0.21 | 0.09 | 1.2 | -0.03 | 0.00 | -0.03 | 0.04 | 32.3 | −17.4 | −26.8 | TR-FRET measured binding of C0-C2 to actin, effect of compound ([1]; 20 μM compound): almost completely eliminated; Kd (F-actin): ~200 µM; EC50 [4]: 4.8 ± 1.2 µM; ITC n (stoichiometry, compound per C0-C2) [5]: 3.4; Kd [5, 8]: 16.6 ± 1 µM; ITC n (fitted curve of Figure 4) [5, 9]: 3.9; ITC ΔH (fitted curve of Figure 4) [5, 9]: -4.25 kcal/mol; ITC ΔS (fitted curve of Figure 4) [5, 9]: 30.2 J/mol•K; Kd [5, 10]: 17.6 µM; absorbance in the visible range (light scatter, C0-C2 aggregation) (C0-C2): did not detect absorption |
